According to patent US10913952B2, “Environmental stress response transcriptional regulatory network” (Salk Institute for Biological Studies, priority 2016, dated 2021):

What was measured:
ChIPped TFs = experiment: Western blot of epitope-tagged ChIPped TFs after ABA treatment; type: in vivo, Arabidopsis thaliana; settings: H3 loading control
Arabidopsis thaliana = experiment: RNA-seq of ABA-treated etiolated seedlings (ABA time series); type: in vivo
Description: For ABA time series experiments, two biological replicates of 3-day-old etiolated, hydroponic-grown wild-type Col-0 seedlings were treated either by 10 μM (+/−)-ABA (MP biomedicals LLC, cat. #190673) dissolved in ethanol or ethanol-only mock control for 1, 4, 8, 12, 24, 36, and 60 hours. For DEX treatment, short term experiment was carried out by treating 3-day-old etiolated, DEX-inducible GFP-DIG1, GFP-DIG2 or GFP lines with 10 μM DEX (Sigma Aldrich, cat. #D9184); long term experiment was carried out by growing the same lines of plants containing 500 nM DEX for 10 days. Total RNA was isolated using the RNeasy Plant Mini Kit (Qiagen, CA, USA, Cat. #74903), and cDNA libraries were constructed using the TruSeq Stranded Total RNA LT Sample Prep Kit (Illumina, CA, USA, Cat. #15032611) according to manufacturers' instructions. Single-end reads were generated by the HiSeq 2500 Sequencing System (Illumina) and mapped to TAIR10 genome assembly using TopHat 2 (v2.0.8) (56). Mapped reads with mapping score equal to or larger than 10 were counted by HTSeq (v0.5.4) (57) and analyzed by edgeR (v3.6.2) (18) to identify differentially expressed genes using contrasts between ABA- and mock-treated samples at each time point and false discovery rate 0.01 or 0.05 as thresholds.
The genome-wide binding dynamics of a diverse collection of TFs was profiled using ChIP-seq to develop an in planta ABA transcriptional regulatory network. ABA-responsive transcripts were first surveyed in Arabidopsis thaliana, by generating strand-specific RNA-seq libraries from 3-day-old etiolated whole seedlings treated with either 10 uM (+/−)-ABA or an ethanol-containing mock for 1, 4, 8, 12, 24, 36 and 60 hours (FIG. 1A). Among 18,310 expressed genes, 3,061 are DE (FDR<0.01, Table 1) (18) for at least one time point. One hour of ABA treatment leads to moderate DE of many genes, and most transcriptional responses plateau after 8 hours (FIGS. 1B, 2). On the basis of gene expression data, we performed ChIP-seq experiments at four hours post ABA dose. TFs were selected based on responsiveness to ABA and published evidence, aiming to provide a good representation of TF families (FIG. 3; Tables 1 and 2). In general, highly expressed and responsive TFs were chosen in each representative TF family because in the context of an in planta experimental framework, the impact of these TFs on gene expression can be more effectively investigated compared with their weakly expressed homologs. All TF genes were epitope tagged by a recombineering-based approach (19), mostly with large DNA transformable artificial chromosomes, allowing the TFs to be expressed under their native promoters and genomic context (Table 2). The final dataset consisted of one hundred and twenty-two ChIP-seq experiments of 21 TFs from 11 families, including mock- and ABA-treated conditions.

[1] = 10 uM ABA treatment for 4 hours

CC1=CC(=O)CC(C)(C)C1(O)/C=C/C(C)=C\C(=O)O (racemic) [ABA, abscisic acid]
3,061: number of differentially expressed (DE) genes (Arabidopsis thaliana; 10 uM (+/-)-ABA vs ethanol mock, 1-60 hours, DE for at least one time point, FDR<0.01, among 18,310 expressed genes)
Two hundred and twenty-two: number of differentially expressed TFs (Arabidopsis thaliana; first 1, 4 or 8 hours of ABA treatment, edgeR FDR threshold 0.05)
up regulated: RNA-seq evidence: ABF1 (Arabidopsis thaliana; [1]) | RNA-seq evidence: ABF3 (Arabidopsis thaliana; [1]) | RNA-seq evidence: ABF4 (Arabidopsis thaliana; [1]) | RNA-seq evidence: ANAC032 (Arabidopsis thaliana; [1]) | RNA-seq evidence: ANAC102 (Arabidopsis thaliana; [1]) | RNA-seq evidence: DREB2A (Arabidopsis thaliana; [1]) | RNA-seq evidence: FBH3 (Arabidopsis thaliana; [1]) | RNA-seq evidence: GBF2 (Arabidopsis thaliana; [1]) | RNA-seq evidence: GBF3 (Arabidopsis thaliana; [1]) | RNA-seq evidence: HAT22 (Arabidopsis thaliana; [1]) | RNA-seq evidence: HB6 (Arabidopsis thaliana; [1]) | RNA-seq evidence: HSFA6A (Arabidopsis thaliana; [1]) | RNA-seq evidence: MYB3 (Arabidopsis thaliana; [1]) | RNA-seq evidence: MYB44 (Arabidopsis thaliana; [1]) | RNA-seq evidence: NF-YB2 (Arabidopsis thaliana; [1]) | RNA-seq evidence: NF-YC2 (Arabidopsis thaliana; [1]) | RNA-seq evidence: RD26 (ANAC072) (Arabidopsis thaliana; [1]) | RNA-seq evidence: ZAT6 (Arabidopsis thaliana; [1])
elevated: protein abundance of most ChIPped TFs (ChIPped TFs)
